Experimental data published in patent US12570650B2, “6-substituted pyridazine compounds as SMARCA2 and/or SMARCA4 degraders” (Aurigene Oncology Limited, priority 2020, dated 2026).

What was measured:
Format in all cases: cell-based
SMARCA4 = molecular target: T1, SMARCA4 (Homo sapiens, UniProt P51532); experiment: SMARCA4 degradation in VCaP cells by Western blot; conditions: 16 hours
T1 construct: Determination of SMARCA2 and SMARCA4 Degradation in VCaP Cells by Western Blot; endogenous in cells; host or cells: VCaP (ATCC CRL-2876)
T1 sequence (P51532 whole entry): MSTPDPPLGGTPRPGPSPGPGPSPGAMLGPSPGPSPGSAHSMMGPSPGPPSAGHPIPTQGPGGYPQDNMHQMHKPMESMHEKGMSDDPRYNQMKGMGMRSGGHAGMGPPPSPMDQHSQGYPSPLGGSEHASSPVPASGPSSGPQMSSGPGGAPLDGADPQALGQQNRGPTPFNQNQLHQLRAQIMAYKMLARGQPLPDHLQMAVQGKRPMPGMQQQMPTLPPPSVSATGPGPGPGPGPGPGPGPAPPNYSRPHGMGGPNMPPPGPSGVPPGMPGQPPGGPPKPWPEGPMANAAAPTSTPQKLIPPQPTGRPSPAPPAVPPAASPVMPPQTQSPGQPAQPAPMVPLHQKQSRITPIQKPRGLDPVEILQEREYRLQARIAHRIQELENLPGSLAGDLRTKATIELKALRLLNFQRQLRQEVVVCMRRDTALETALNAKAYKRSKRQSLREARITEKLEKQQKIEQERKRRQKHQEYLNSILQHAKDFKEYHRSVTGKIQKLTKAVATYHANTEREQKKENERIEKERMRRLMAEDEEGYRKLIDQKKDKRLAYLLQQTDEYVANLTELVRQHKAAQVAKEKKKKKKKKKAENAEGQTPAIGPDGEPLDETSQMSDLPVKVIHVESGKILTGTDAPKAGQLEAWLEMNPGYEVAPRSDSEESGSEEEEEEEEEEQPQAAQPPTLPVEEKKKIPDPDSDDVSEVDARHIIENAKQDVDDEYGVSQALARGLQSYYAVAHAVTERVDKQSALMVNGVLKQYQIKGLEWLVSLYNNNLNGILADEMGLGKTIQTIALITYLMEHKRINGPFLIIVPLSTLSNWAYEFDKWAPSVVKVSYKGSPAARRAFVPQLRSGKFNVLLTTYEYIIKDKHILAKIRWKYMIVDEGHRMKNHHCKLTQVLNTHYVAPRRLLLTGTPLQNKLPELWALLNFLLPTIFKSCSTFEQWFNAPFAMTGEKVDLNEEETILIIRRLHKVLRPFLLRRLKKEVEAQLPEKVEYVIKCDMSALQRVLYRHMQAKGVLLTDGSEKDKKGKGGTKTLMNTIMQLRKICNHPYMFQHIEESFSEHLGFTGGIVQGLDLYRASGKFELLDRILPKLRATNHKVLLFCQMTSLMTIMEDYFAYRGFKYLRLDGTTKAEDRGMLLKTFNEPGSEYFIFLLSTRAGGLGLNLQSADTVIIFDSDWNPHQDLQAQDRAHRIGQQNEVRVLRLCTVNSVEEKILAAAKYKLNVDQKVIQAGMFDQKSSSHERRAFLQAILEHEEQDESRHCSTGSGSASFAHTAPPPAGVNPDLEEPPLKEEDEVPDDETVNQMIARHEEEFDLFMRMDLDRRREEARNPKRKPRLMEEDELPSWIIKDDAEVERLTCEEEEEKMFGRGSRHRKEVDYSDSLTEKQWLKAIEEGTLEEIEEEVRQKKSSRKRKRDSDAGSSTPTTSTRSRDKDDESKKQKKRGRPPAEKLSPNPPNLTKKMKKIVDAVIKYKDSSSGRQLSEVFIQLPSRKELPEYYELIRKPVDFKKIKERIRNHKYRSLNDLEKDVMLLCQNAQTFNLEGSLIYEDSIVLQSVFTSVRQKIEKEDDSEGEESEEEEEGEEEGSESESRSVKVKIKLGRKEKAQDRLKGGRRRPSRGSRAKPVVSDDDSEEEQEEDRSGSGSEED
Method in brief: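 VCaP cells treated with compounds diluted from DMSO stocks, final DMSO ≤0.3%; equal protein analysed by SDS-PAGE Western blot. Degradation = 100 − (normalized SMARCA4 band in treated/DMSO sample)×100.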

RERF-LC-A1 cell line = experiment: Anti proliferative activity, Cell Titer Glo assay, RERF-LC-A1; conditions: 144 h; RERF-LC-A1 cells, terminated day 6 without retreatment, CellTiter-Glo
Protocol: (§1) Example-P3: Determination of Anti Proliferative Activity of Compounds by Cell Titer Glo®(Promega) Assay
(§2) Cells were seeded into 96-well plates and the plate was incubated in 37 degrees incubator overnight. The next day, compounds were diluted 3-fold to cover 9-point concentration range in DMSO. Intermediate plate dilution was prepared in media followed with compound treatment in cells. Retreatment of cells with compound dilutions was performed on Day 4 and assay was terminated on day 8 for SK-MEL-5 cells using CellTiter-Glo and the plate was kept on orbital shaker for 20 minutes at RT. Assay was terminated on day 6 for RERF-LC-A1 without a compound retreatment. Luminescence signal was recorded on VICTOR^3 instrument. Percent inhibition of proliferation was calculated at each concentration and plotted against the compound concentration. EC50 value was calculated using GraphPad software.
Herein the group “++” refers to EC50 (RERF-LC-A1) values lower than 100 nM and “+” refers to EC50 (RERF-LC-A1) values greater than 100 nM.

SK-MEL-5 cells = experiment: Anti proliferative activity, Cell Titer Glo assay, SK-MEL-5; conditions: Homo sapiens, SK-MEL-5, SK-MEL-5 cells, retreatment Day 4, terminated day 8, CellTiter-Glo
Protocol: as §1, §2

SMARCA2 = molecular target: T2, SMARCA2 (Homo sapiens, UniProt P51531); experiment: SMARCA2 degradation in VCaP cells by Western blot; conditions: 16 hours
T2 construct: Determination of SMARCA2 and SMARCA4 Degradation in VCaP Cells by Western Blot; endogenous in cells; host or cells: VCaP (ATCC CRL-2876)
T2 sequence (P51531 whole entry): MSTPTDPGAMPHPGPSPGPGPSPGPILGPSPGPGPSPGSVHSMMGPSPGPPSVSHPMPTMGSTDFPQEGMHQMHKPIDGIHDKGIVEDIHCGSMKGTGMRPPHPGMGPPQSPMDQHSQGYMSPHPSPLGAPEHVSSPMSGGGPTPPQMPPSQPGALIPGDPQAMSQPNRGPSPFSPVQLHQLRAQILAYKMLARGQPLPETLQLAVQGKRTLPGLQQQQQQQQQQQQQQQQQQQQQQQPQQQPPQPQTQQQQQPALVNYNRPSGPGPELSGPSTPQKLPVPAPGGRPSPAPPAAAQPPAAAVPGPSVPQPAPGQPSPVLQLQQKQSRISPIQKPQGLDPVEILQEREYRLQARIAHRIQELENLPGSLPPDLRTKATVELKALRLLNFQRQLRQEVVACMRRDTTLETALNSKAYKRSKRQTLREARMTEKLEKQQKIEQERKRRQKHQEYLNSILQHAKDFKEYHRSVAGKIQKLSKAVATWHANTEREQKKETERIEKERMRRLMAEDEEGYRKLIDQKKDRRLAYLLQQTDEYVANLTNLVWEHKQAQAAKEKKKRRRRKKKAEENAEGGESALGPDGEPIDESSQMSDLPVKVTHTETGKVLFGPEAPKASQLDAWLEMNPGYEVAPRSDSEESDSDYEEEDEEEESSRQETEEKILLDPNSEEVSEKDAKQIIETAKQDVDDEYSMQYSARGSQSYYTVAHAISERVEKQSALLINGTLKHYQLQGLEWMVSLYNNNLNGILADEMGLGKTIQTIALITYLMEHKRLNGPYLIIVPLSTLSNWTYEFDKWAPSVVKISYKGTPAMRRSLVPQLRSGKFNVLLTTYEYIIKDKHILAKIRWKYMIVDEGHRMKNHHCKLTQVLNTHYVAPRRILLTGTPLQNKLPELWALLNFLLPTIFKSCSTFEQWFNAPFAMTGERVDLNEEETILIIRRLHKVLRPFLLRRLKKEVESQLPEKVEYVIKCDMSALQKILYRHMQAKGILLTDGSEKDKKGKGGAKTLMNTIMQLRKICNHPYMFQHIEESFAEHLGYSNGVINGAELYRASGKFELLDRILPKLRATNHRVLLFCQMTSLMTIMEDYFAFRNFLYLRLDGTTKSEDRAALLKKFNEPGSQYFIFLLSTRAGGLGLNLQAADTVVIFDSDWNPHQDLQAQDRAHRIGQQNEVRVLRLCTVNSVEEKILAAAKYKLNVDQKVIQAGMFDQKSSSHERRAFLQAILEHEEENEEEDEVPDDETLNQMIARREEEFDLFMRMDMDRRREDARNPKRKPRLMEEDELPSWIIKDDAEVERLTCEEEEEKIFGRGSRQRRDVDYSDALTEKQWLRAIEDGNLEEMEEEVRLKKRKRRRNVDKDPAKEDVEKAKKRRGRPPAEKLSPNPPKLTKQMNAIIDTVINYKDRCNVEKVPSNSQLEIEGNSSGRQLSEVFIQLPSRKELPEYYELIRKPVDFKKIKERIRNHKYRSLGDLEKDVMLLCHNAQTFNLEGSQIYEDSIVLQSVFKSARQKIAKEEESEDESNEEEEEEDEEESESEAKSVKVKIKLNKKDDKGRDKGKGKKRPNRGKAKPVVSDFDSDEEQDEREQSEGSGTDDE
Method in brief: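 VCaP cells were treated with compound for 16 hours, with DMSO at no more than 0.3% final. Lysates were immunoblotted for SMARCA2, using beta-tubulin as loading control. % degradation = 100 − (normalized band intensity treated/normalized band intensity DMSO)×100.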

## Cc1ncsc1-c1ccc([C@H](C)NC(=O)[C@@H]2C[C@@H](O)CN2C(=O)[C@@H](NC(=O)CN2CC3CCC(C2)N3c2ccc(-c3cnnc(-c4ccccc4O)c3)cc2)C(C)(C)C)cc1 [Compound 24, (2S,4R)-4-hydroxy-1-((2S)-2-(2-(8-(4-(6-(2-hydroxyphenyl)pyridazin-4-yl)phenyl)-3,8-diazabicyclo[3.2.1]octan-3-yl)acetamido)-3,3-dimethylbutanoyl)-N-((S)-1-(4-(4-methylthiazol-5-yl)phenyl)ethyl)pyrrolidine-2-carboxamide]
SMARCA4
  Percent degradation (at 100 nM) SMARCA4: 15%
RERF-LC-A1 cell line
  EC50: < 100 nM
SK-MEL-5 cells
  EC50: < 250 nM
SMARCA2
  Percent degradation (at 100 nM) SMARCA2: 96%
